What was measured:
Conditions in all cases: scale 0 to 100
[1] = test system: windgrass; assay: Test D preemergence; format: in vivo, Apera spica-venti
Source text: (§1) Seeds of plant species selected from bluegrass (annual bluegrass, Poa annua), blackgrass (Alopecurus myosuroides), canarygrass (littleseed canarygrass, Phalaris minor), chickweed (common chickweed, Stellaria media), galium (catchweed bedstraw, Galium aparine), bromegrass, downy (downy bromegrass, Bromus tectorum), field poppy (Papaver rhoeas), field violet (Viola arvensis), foxtail, green (green foxtail, Setaria viridis), deadnettle (henbit deadnettle, Lamium amplexicaule), ryegrass, Italian (Italian ryegrass, Lolium multiflorum), kochia (Kochia scoparia), lambsquarters (Chenopodium album), oilseed rape (Brassica napus), pigweed (redroot pigweed, Amaranthus retroflexus), chamomile (scentless chamomile, Matricaria inodora), speedwell (bird's-eye speedwell, Veronica persica), barley, spring (spring barley, Hordeum vulgare), wheat, spring (spring wheat, Triticum aestivum), buckwheat, wild (wild buckwheat, Polygonum convolvulus), mustard, wild (wild mustard, Sinapis arvensis), oat, wild (wild oat, Avena fatua), radish, wild (wild radish, Raphanus raphanistrum), windgrass (Apera spica-venti), Russian thistle (Salsola kali), barley, winter (winter barley, Hordeum vulgare), and wheat, winter (winter wheat, Triticum aestivum) were planted into a silt loam soil and treated preemergence with test chemicals formulated in a non-phytotoxic solvent mixture which included a surfactant.
(§2) At the same time, these species were planted in pots containing Redi-Earth® planting medium (Scotts Company, 14111 Scottslawn Road, Marysville, Ohio 43041) comprising spaghnum peat moss, vermiculite, wetting agent and starter nutrients and treated with postemergence applications of the test chemicals formulated in the same manner. Plants ranged in height from 2 to 18 cm (1- to 4-leaf stage). Treated plants and controls were maintained in a controlled growth environment for 14 to 21 days after which time all species were compared to controls and visually evaluated. Plant response ratings, summarized in Table D, are based on a scale of 0 to 100 where 0 is no effect and 100 is complete control. A dash (-) response means no test result.

[2] = test system: pigweed; assay: Test D preemergence; format: in vivo, Amaranthus retroflexus
Source text: as §1, §2

[3] = test system: chickweed; assay: Test D preemergence; format: in vivo, Stellaria media
Source text: as §1, §2

[4] = test system: oilseed rape; assay: Test D postemergence; format: in vivo, Brassica napus
Source text: as §1, §2

[5] = test system: wheat, spring; assay: Test D postemergence; format: in vivo, Triticum aestivum
Source text: as §1, §2

[6] = test system: wheat, winter; assay: Test D postemergence; format: in vivo, Triticum aestivum
Source text: as §1, §2

[7] = test system: field violet; assay: Test D postemergence; format: in vivo, Viola arvensis
Source text: as §1, §2

[8] = test system: bromegrass, downy; assay: Test D postemergence; format: in vivo, Bromus tectorum
Source text: as §1, §2

[9] = test system: mustard, wild; assay: Test D preemergence; format: in vivo, Sinapis arvensis
Source text: as §1, §2

[10] = test system: windgrass; assay: Test D postemergence; format: in vivo, Apera spica-venti
Source text: as §1, §2

With `CCc1cc(C(=O)NC(C)C)nn1Cc1ccnc(C(F)(F)F)c1` [Compound 103] the “Plant response rating, Windgrass” value ([1]; 31 g ai/ha) was 15, the “Plant response rating, Windgrass” value ([1]; 62 g ai/ha) was 80 and the “Plant response rating, Windgrass” value ([1]; 125 g ai/ha) was 100. For the same molecule, the “Plant response rating, Windgrass” value ([1]; 250 g ai/ha) was 100, the “Plant response rating, Pigweed” value ([2]; 31 g ai/ha) was 100 and the “Plant response rating, Pigweed” value ([2]; 62 g ai/ha) was 100. The “Plant response rating, Pigweed” value ([2]; 125 g ai/ha) was 100, the “Plant response rating, Pigweed” value ([2]; 250 g ai/ha) was 100 and the “Plant response rating, Chickweed” value ([3]; 31 g ai/ha) was 95. For the same molecule, the “Plant response rating, Chickweed” value ([3]; 62 g ai/ha) was 100, the “Plant response rating, Chickweed” value ([3]; 125 g ai/ha) was 100 and the “Plant response rating, Chickweed” value ([3]; 250 g ai/ha) was 100. The “Oilseed Rape plant response rating” value ([4]; Postemergence, 31 g ai/ha) was 25, the “Oilseed Rape plant response rating” value ([4]; Postemergence, 125 g ai/ha) was 35 and the “Oilseed Rape plant response rating” value ([4]; Postemergence, 250 g ai/ha) was 45. For the same molecule, the “Oilseed Rape plant response rating” value ([4]; postemergence, 62 g ai/ha) was 35, the “Wheat, Spring plant response rating” value ([5]; Postemergence, 31 g ai/ha) was 0 and the “Wheat, Spring plant response rating” value ([5]; Postemergence, 125 g ai/ha) was 0. The “Wheat, Spring plant response rating” value ([5]; Postemergence, 250 g ai/ha) was 5, the “Wheat, Spring plant response rating” value ([5]; postemergence, 62 g ai/ha) was 0 and the “Wheat, Winter plant response rating” value ([6]; Postemergence, 31 g ai/ha) was 0. For the same molecule, the “Wheat, Winter plant response rating” value ([6]; Postemergence, 125 g ai/ha) was 10, the “Wheat, Winter plant response rating” value ([6]; Postemergence, 250 g ai/ha) was 30 and the “Wheat, Winter plant response rating” value ([6]; postemergence, 62 g ai/ha) was 5. For the same molecule, the “Field Violet plant response rating” value ([7]; Postemergence, 31 g ai/ha) was 35, the “Field Violet plant response rating” value ([7]; Postemergence, 125 g ai/ha) was 60 and the “Field Violet plant response rating” value ([7]; Postemergence, 250 g ai/ha) was 60. The “Field Violet plant response rating” value ([7]; postemergence, 62 g ai/ha) was 55, the “Bromegrass, Downy plant response rating” value ([8]; Postemergence, 31 g ai/ha) was 5 and the “Bromegrass, Downy plant response rating” value ([8]; Postemergence, 125 g ai/ha) was 15. The “Bromegrass, Downy plant response rating” value ([8]; Postemergence, 250 g ai/ha) was 15, the “Bromegrass, Downy plant response rating” value ([8]; postemergence, 62 g ai/ha) was 10 and the “Plant response rating, Mustard, Wild” value ([9]; 31 g ai/ha) was 55. For the same molecule, the “Plant response rating, Mustard, Wild” value ([9]; 62 g ai/ha) was 60, the “Plant response rating, Mustard, Wild” value ([9]; 125 g ai/ha) was 75 and the “Plant response rating, Mustard, Wild” value ([9]; 250 g ai/ha) was 100. The “Windgrass plant response rating” value ([10]; Postemergence, 31 g ai/ha) was 10, the “Windgrass plant response rating” value ([10]; Postemergence, 125 g ai/ha) was 25 and the “Windgrass plant response rating” value ([10]; Postemergence, 250 g ai/ha) was 35. For the same molecule, the “Windgrass plant response rating” value ([10]; postemergence, 62 g ai/ha) was 20.

Source: patent publication US20150105252A1, “SUBSTITUTED PYRAZOLES AS HERBICIDES” (E I DU PONT DE NEMOURS AND COMPANY, priority 2013, published 2015)
